Columns and labels:
[1] = tested on: Acetobacter pasteurianus FERM BP-4176; test: Shape/length of cellulose-producing bacterium by optical microscope; format: cell-based
Description: (§1) Seed culture was carried out by placing 20 ml of the above culture medium in a 100 ml flask with baffle, inoculating Acetobacter pasteurianus FERM BP-4176, and then culturing at 25° C. for 3 days with stirring at 200 rpm. The culture medium was crushed by a blender, and added to a main culture medium having the above composition in a concentration of 2% seed culture.
(§2) The main culture was carried out by static culture at 25° C. During the culture, culture solution and bacterial cellulose were withdrawn, and the morphology of bacteria was observed by an optical microscope, an electron microscope and an atomic force microscope.
(§3) Six main culture media were used, and nalidixic acid (NA) was added thereto in a concentration of 0.01 mM, 0.05 mM, 0.1 mM, 0.2 mM or 1.0 mM except one medium to which NA was not added.
(§4) Acetobacter pasteurianus FERM BP-4176 was cultured in static culture, and the culture solution and bacterial cellulose were withdrawn, and the shape of bacteria was observed by the optical microscope, the electron microscope and the atomic force microscope, similar to Example 1, except that chloramphenicol was used instead of nalidixic acid.
That is, six main culture media having the aforementioned composition were used, and chloramphenicol (CP) was added thereto in a concentration of 0.1 mM, 0.2 mM, 0.3 mM, 0.5 mM or 1.0 mM except one medium to which CP was not added.
as §4, with “form” for “shape”
That is, four main culture media having the aforementioned composition were used, and dithiothreitol (DTT) was added thereto in a concentration of 0.5 mM, 1.0 mM or 2.0 mM except one medium to which DTT was not added.
as §4, with “in agitation culture at 180 rpm instead of” for “in”, “electro” for “electron”, “1.” for “1, except that chloramphenicol was used instead of nalidixic acid.”
That is, […] main culture media having the aforementioned composition were used, and nalidixic acid (NA) was added thereto in a concentration of 0.10 mM, or 0.20 mM, except one medium to which NA was not added.

[2] = tested on: Acetobacter pasteurianus FERM BP-4176; test: Production of bacterial cellulose in static culture; format: cell-based; settings: NA 0.01 to 1.0 mM
Description: The culture medium used was composed of 50.0 g/l sucrose, 5.0 g/l “Total Amino Acid” (Ajinomoto Co., Inc.), 0.2 g/l phytic acid, 2.4 g/l magnesium sulfate and 1.0 g/l ammonium sulfate (pH 5.0).
as §1, §2, §3

With `O=C(N[C@H](CO)[C@H](O)c1ccc([N+](=O)[O-])cc1)C(Cl)Cl` [CP, chloramphenicol] the “length of the cellulose-producing bacterium, up to, relative to bacteria cultured in no CP medium” value ([1]; CP 0.1 to 1.0 mM, static culture) was 8 to 12 times and the “change of length of the cellulose-producing bacterium with increasing concentration” value ([1]; static culture) was “increased”.
`CCn1cc(C(=O)O)c(=O)c2ccc(C)nc21` [NA, nalidixic acid] was tested, and the “lengthening of bacterium compared with no addition of NA” value ([1]; 0.1 mM NA, static culture 2 days) was 2 to 4 times, the “change of length of the cellulose-producing bacteria” value ([1]; agitation culture 180 rpm, 0.10 or 0.20 mM NA) was “increased” and the “production of bacterial cellulose with increasing NA concentration” value [2] was “inhibited”.
With `O[C@H](CS)[C@H](O)CS` (racemic) [DTT, dithiothreitol] the “length of the bacterium as fraction of the bacteria cultured in no DTT medium” value ([1]; 1.0 mM DTT, static culture 2 days) was “⅓ to ½” and the “change of length of the cellulose-producing bacterium with increasing concentration” value ([1]; static culture) was “decreased”.

Reference: patent USRE38792E1, “Modified bacterial cellulose” (Ajinomoto Co., Ltd., priority 1996, dated 2005)
